Experimental data from paper PMC8387043, “Host Poly(A) Polymerases PAPD5 and PAPD7 Provide Two Layers of Protection That Ensure the Integrity and Stability of Hepatitis B Virus RNA” (Journal of Virology, 2021).
Like-named read-outs stand apart in the source and are kept apart here.

Tests used:
HBV PRE = HBV PRE cis-element reporter plasmids (HBsAg or Gluc) transfected in Huh-7 cells; conditions: Hepatitis B virus
HBV [1] = assay: Antiviral assay in HepG2.2.15 cells (HBsAg/HBeAg CLIA, secreted HBV DNA qPCR); assay type: cell-based, hepatitis B virus
recombinant human PAPD7 = target: T1, recombinant human PAPD7 (Homo sapiens, UniProt Q5XG87); assay: PAPD7 ATP depletion assay; assay type: biochemical
T1 construct: PAPD7 (amino acids 226 to 558; NM_006999.6); 10xHis (N); Flag (N); TEV cleavage site (N); host or cells: E. coli BL21(DE3), vector pET-24a(+)
Description: (§1) Molecular cloning, expression, and purification of the recombinant human PAPD5 and PAPD7 proteins were performed at Xtal BioStructures (MA, USA). PAPD5 (amino acids 186 to 518; GenBank accession no. XM_011523275) and PAPD7 (amino acids 226 to 558; GenBank accession no. NM_006999.6) genes comprising of nucleotidyltransferase and PAP-associated domains were codon optimized, synthesized, and inserted in the expression vector pET-24a(+) for E. coli expression with 10×His-Flag-tobacco etch virus (TEV) tags at the N terminus. The pET-24a(+) constructs were transformed into E. coli-competent cells BL21(DE3). […] Expression of protein was induced for 16 h with 0.2 mM IPTG (isopropyl-β-D-thiogalactopyranoside) at 18°C. […] Roche). Cell suspension was sonicated 8 × 20 s at 27 to 30 W (power level, 3.5 to 4.0) with 40-s breaks between each pulse. Lysate was cleared by centrifugation in a 50-ml conical tube at 20,000 × g for 30 min (Fiberlite F13-14 × 50cy rotor in a Sorvall RC6 centrifuge). Supernatant was incubated with Ni-charged MagBeads (GenScript; catalog no. […] Bound proteins were washed with 50 ml binding buffer and eluted in elution buffer containing a gradient of imidazole ranging from 5 to 500 mM. Peak fractions were pooled and stored in 50% glycerol at -80°C. Reactions were carried out in duplicate in 96-well low-profile, skirted, white plates (catalog no. AB0800WL; […] The reaction mixtures were incubated at room temperature for 3 h, and ATP depletion was monitored by using Kinase-Glo luminescent kinase kit following the manufacturer's instructions (catalog no. V6712; Promega, WI, USA).

recombinant human PAPD5 = target: T2, recombinant human PAPD5 (Homo sapiens, UniProt Q8NDF8); assay: PAPD5 ATP depletion assay; assay type: biochemical; conditions: truncated recombinant human PAPD5, ATP depletion
T2 construct: PAPD5 (amino acids 186 to 518; XM_011523275); 10xHis (N); Flag (N); TEV cleavage site (N); host or cells: E. coli BL21(DE3), vector pET-24a(+)
Description: as §1

HBV [2] = assay: HBsAg inhibition in PLC/PRF/5 cells; assay type: cell-based; conditions: Hepatitis B virus
Description: AB-452 and RG7834 both belong to the dihydroquinolizinones chemical class. The antiviral activities of AB-452 and its diastereomer ARB-169451 were evaluated using multiple in vitro HBV replication models, including HepG2.2.15 cells (which constitutively express HBV through the integrated viral genome), PLC/PRF/5 cells (a patient-derived hepatocellular carcinoma cell line only expressing HBsAg), and HBV-infected HepG2-NTCP cells or primary human hepatocytes (PHHs) in which viral replication was dependent on cccDNA transcription (Table 1).
HepG2.2.15, HepAD38, and PLC/PRF/5 cells were cultured in Dulbecco’s modified Eagle medium (DMEM)/F12 medium (Corning, NY, USA), supplemented with 10% fetal bovine serum (Gemini, CA, USA), 100 U/ml penicillin, and 100 μg/ml streptomycin. Huh-7 cells (Creative Bioarray, NY, USA) were cultured in RPMI 1640 medium (Basel, Switzerland) containing 10% fetal bovine serum, 100 U/ml penicillin, and 100 μg/ml streptomycin. HepG2-hNTCP-C4 cells were cultured in DMEM medium (Gibco, MA, USA) containing 10% fetal bovine serum and 10 mM HEPES (Gibco).

HBV [3] = assay: HBV replication intermediates and viral proteins in HepG2.2.15 cells (Northern, Western, particle gel, Southern); assay type: cell-based, hepatitis B virus; conditions: HepG2.2.15, 6 days; ETV, GLS-4, cmpdA 1 μM; AB-452 70 nM
Description: Total cellular RNA was extracted from HepG2.2.15 or HepAD38 cells treated with or without antiviral compounds using TRIzol reagent according to the manufacturer's directions (Thermo Fisher Scientific, Waltham, MA). Northern blotting was performed as described previously ([1]). Briefly, total RNA was separated in a 1.5% agarose gel and transferred onto an Amersham Hybond-XL membrane (product no. GERPN303S; GE Healthcare, IL, USA). Membranes were probed with an [α-^32P]UTP (PerkinElmer, CT, USA)-labeled minus strand-specific full-length HBV riboprobe (3.2 kb) transcribed from plasmid pSP65_HBV(+) DNA. Membranes were exposed to a phosphoimager screen, and the hybridization signals were quantified using Image Studio software (Li-Cor Biosciences, NE, USA).
Total intracellular viral core-associated DNA was extracted as described previously ([1]) and analyzed by Southern blotting hybridization with an [α-^32P]UTP-labeled full-length HBV riboprobe (3.2 kb) that specifically hybridized to minus strand of viral DNA. Membranes were exposed to a phosphoimager screen, and the hybridization signals were quantified using Image Studio software.
HepG2.2.15 or HepAD38 cells cultured in a 12-well plate were lysed with 200 μl Laemmli sample buffer (Bio-Rad, PA, USA) supplemented with 2.5% 2-mercaptoethanol (Sigma-Aldrich, MO, USA). […]

HBsAg = HBsAg inhibition in adenovirus-HBsAg-transduced HepG2-NTCP WT and KO clones; assay type: cell-based, hepatitis B virus; conditions: for EC50: HBsAg, read-out: Adeno infection EC50
PAPD5 = tested on: PAPD5; parameters: method as in PMID 31801065; conditions: read-out: PAPD5 IC50 previously reported; cited from earlier work

T2 sequence (Q8NDF8 106-438 limits assumed): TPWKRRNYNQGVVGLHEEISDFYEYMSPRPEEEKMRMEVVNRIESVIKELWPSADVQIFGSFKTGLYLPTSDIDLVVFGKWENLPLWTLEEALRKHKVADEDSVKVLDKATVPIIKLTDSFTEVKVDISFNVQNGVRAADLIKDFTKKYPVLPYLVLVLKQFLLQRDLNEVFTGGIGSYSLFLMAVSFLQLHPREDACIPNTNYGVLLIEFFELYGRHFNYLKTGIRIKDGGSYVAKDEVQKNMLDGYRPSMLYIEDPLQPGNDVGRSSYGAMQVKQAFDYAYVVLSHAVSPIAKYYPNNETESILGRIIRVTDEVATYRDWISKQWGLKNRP
T1 sequence (Q5XG87 226-558): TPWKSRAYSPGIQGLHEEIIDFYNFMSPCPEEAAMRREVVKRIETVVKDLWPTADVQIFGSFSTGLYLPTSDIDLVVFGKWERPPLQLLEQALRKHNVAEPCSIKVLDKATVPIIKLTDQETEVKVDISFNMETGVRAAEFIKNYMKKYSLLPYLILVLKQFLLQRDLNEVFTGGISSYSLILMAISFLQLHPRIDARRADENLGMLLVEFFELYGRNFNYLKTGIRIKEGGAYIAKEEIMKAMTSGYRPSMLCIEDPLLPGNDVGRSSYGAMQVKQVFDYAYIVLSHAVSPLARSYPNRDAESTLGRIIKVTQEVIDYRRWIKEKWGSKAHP

COCCCOc1cc2c(nc1OC)-c1cc(=O)c(C(=O)O)cn1[C@@H](C(C)C)C2 [ARB-169451]
EC50 (HBV PRE; 120 h, read-out: EC50, Gluc_dHBx (Gluc activity)): > 100 nM | EC50 (HBV PRE; 120 h, read-out: EC50, H133_Gluc (Gluc activity)): > 100 nM | EC50 (HBV PRE; Huh-7, 120 h, read-out: EC50, Gluc_rcSLα (Gluc activity)): > 100 nM | EC50 (HBV PRE; Huh-7, 120 h, read-out: EC50, H133 (HBsAg)): > 100 nM | EC50 (HBV PRE; Huh-7, 120 h, read-out: EC50, H133_dLa (HBsAg)): > 100 nM | EC50 (HBV PRE; Huh-7, 120 h, read-out: EC50, H133_dSLα (HBsAg)): > 100 nM | fold weaker toward HBsAg inhibition than AB-452 (HBV [1]): more than 1,000 fold | EC50 (HBV [1]; Hepatitis B virus, HepG2.2.15 cells, read-out: HBsAg EC50): 2230 nM | IC50 (recombinant human PAPD7): > 50000 nM | IC50 (recombinant human PAPD5): 27000 nM | EC50 (HBV [2]): > 100 nM

C=C1[C@H](CO)[C@@H](O)C[C@@H]1n1cnc2c(=O)[nH]c(N)nc21 [ETV, entecavir, reference compound]
Effect on HBV replication intermediates and viral proteins (HBV [3]): strongly inhibited HBV DNA replication but did not reduce the production of intracellular HBV RNA, core protein levels, or capsid assembly

COCCCOc1cc2c(cc1OC)-c1cc(=O)c(C(=O)O)cn1[C@H](C(C)C)C2 [RG7834, reference compound]
Adeno infection FC vs WT (HBsAg; P5_KO (T3-4)): 10.7 | EC50 (HBsAg; P5_KO (T3-4)): 126 ± 74.7 nM | Adeno infection FC vs WT (HBsAg; P5_KO (T3-15)): 7.3 | EC50 (HBsAg; P5_KO (T3-15)): 85.7 ± 59.8 nM | Adeno infection FC vs WT (HBsAg; P7_KO (T2-8)): 2.0 | EC50 (HBsAg; P7_KO (T2-8)): 23.7 ± 15.2 nM | Adeno infection FC vs WT (HBsAg; P7_KO (T2-22)): 0.9 | EC50 (HBsAg; P7_KO (T2-22)): 10.8 ± 2.1 nM | Adeno infection FC vs WT (HBsAg; WT (parent)): 1 | EC50 (HBsAg; WT (parent) HepG2-NTCP): 11.8 ± 9.6 nM | IC50 (recombinant human PAPD7): 1090 nM | IC50 (recombinant human PAPD5): 167 nM | IC50 (PAPD5): 1.3 nM
